Measurements reported in patent publication US6107288A, “Antiviral nucleoside combination” (priority 1991, dated 2000).
Several values for one entry are separate records, joined by “and”; a condition that tells them apart may be missing. Equal values may be shown once. Read-outs that look alike come from different tables or passages of the source.

Test system: HIV
Assay type: cell-based
Procedure: Combinations according to the invention were tested for anti-HIV activity in an HIV-infected MT4 cell assay as described in Averett, D. R., J. Virol. Methods, 23, 263-276 (1989). The cells were exposed to HIV for one hour prior to addition of antiviral component(s). Components were tested in serial 2.5-fold dilutions. After five days of incubation at 37° C., the cell number was determined. Inhibition of HIV-induced cytopathic effect was calculated, and synergism was determined by FIC plots as described by Elion, Singer, and Hitchings, J. Biol. Chem. 208, 477 (1954).
The fractional inhibitor concentrations (FIC) of zidovudine and cis-1-(2-(hydroxymethyl)-1,3-oxathiolan-5-yl)-5-fluorocytosine were calculated according to the method of Elion et al., supra (Table 1).

| SMILES | Fractional Inhibitor Concentration (FIC) | Fractional Inhibitor Concentration (FIC) (70% inhibition, combination of zidovudine 0.004 with Compound 1 2.5) | Fractional Inhibitor Concentration (FIC) (70% inhibition, combination of zidovudine 0.01 with Compound 1 2.0) | Fractional Inhibitor Concentration (FIC) (70% inhibition, combination of zidovudine 0.0256 with Compound 1 1.6) | Fractional Inhibitor Concentration (FIC) (70% inhibition, combination of zidovudine 0.06 with Compound 1 1.4) |
| --- | --- | --- | --- | --- | --- |
| Nc1nc(=O)n([C@@H]2CS[C@H](CO)O2)cc1F (relative stereo) [Compound 1, cis1-(2-(hydroxymethyl)-1,3-oxathiolan-5-yl)-5-fluorocytosine] | 0.48 and 0.38 and 0.31 and 0.26 |  |  |  |  |
| Cc1cn([C@H]2C[C@H](N=[N+]=[N-])[C@@H](CO)O2)c(=O)[nH]c1=O [Zidovudine, 3'-azido-3'-deoxythymidine] |  | 0.018 | 0.045 | 0.12 | 0.27 |
